The values that follow come from patent US20250041215A1, “MULTIDOSE PRESERVATIVE-FREE (MDPF) OPHTHALMIC DOSE DELIVERY WITH ADDITION OF FORMULATION SURFACTANTS” (ALCON INC., priority 2023, published 2025).

The data set is described as follows: Surface tension of ophthalmic composition with added surfactant (Biolin Sigma 700/701 tensiometer). It counts as physicochemical. The note with it: surfactant added at 0.1% w/v to ophthalmic composition A or B, FIGS. 4-6.

For tyloxapol, the “change of surface tension of the ophthalmic composition” value (shortened to “change”) is listed as “reduced the surface tension the most”. In addition, the “change” value (listed as tyloxapol) was “surface tension was lowered”.
On to polysorbate 80, for which the “change” value is given as “surface tension was lowered”.
Same read-out and setting: the entry for polyoxyl 40 stearate is “surface tension was lowered”.
